Measurements taken from PubChem BioAssay (NCI).
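Step 1: Grow cells in 96-well plates. Step 2: Expose to compound for 48 hours at 5 concentrations. Step 3: Interpolate endpoints linearly; if unreached, use highest concentration. TGI marks complete inhibition of growth.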

What was measured:
Assay in all cases: NCI tumour cell line growth inhibition, 48 h
SW-620 colon = tested on: SW-620 colon
786-0 renal = tested on: 786-0 renal
SK-MEL-2 melanoma = tested on: SK-MEL-2 melanoma
NCI-H522 lung = tested on: NCI-H522 lung
M14 melanoma = tested on: M14 melanoma
U251 CNS = tested on: U251 CNS
NCI-H460 lung = tested on: NCI-H460 lung
SNB-19 CNS = tested on: SNB-19 CNS
K-562 leukemia = tested on: K-562 leukemia
HS 578T breast = tested on: HS 578T breast

SMILES | TGI (SW-620 colon) [µM] | TGI (786-0 renal) [µM] | TGI (SK-MEL-2 melanoma) [µM] | TGI (NCI-H522 lung) [µM] | TGI (M14 melanoma) [µM] | TGI (U251 CNS) [µM] | TGI (NCI-H460 lung) [µM] | TGI (SNB-19 CNS) [µM] | TGI (K-562 leukemia) [µM] | TGI (HS 578T breast) [µM]
CC(=O)OC1C(C)OC(OC2C[C@](O)(C(C)=O)Cc3c(O)c4c(c(O)c32)C(=O)c2ccccc2C4=O)C(F)C1OC(C)=O (some centres not stated) | > 100 | 2.36 | 11.3 | 4.29 | 10.7 | 3.65 | 1.53 | 4.99 | > 100 | 9.89
O=C1CSC(c2cccc(Oc3ccccc3)c2)N1c1cc(Cl)ccc1Cl (configuration not stated) | 70.5 | 36.9 | 36.3 | 41.1 | 50.5 | 33.2 | 43.2 | 56.6 | 50.1 | 77.7
C[C@@H](c1ccccc1)N(CC#N)[C@H]1CCC[C@]1(O)/C=C/c1ccc2c(c1)OCO2 | – | > 25 | > 25 | > 25 | > 25 | > 25 | > 25 | > 25 | > 25 | > 25
CCCCSC1=N/C(=C\c2ccccc2O)C(Cl)=N1 | > 100 | > 100 | > 100 | > 100 | > 100 | > 100 | > 100 | > 100 | – | > 100
CCOP(=O)(OCC)/C(C#N)=C(\C)c1ccco1 | > 10 | > 10 | > 10 | – | > 10 | > 10 | > 10 | > 10 | > 10 | > 10
Nc1nc(Nc2cc(F)c(Cl)c(F)c2)cc(=O)[nH]1 | > 100 | > 100 | > 100 | > 100 | > 100 | > 100 | > 100 | > 100 | – | 66.5
CC(C)[C@H](NC(=O)OCc1ccccc1)C(=O)N[C@H](/C=C/C(=O)OC(C)(C)C)CO | > 100 | > 100 | > 100 | > 100 | > 100 | – | > 100 | > 100 | – | > 100
O=CC12CCCN1CCC2 | > 100 | > 100 | > 100 | > 100 | > 100 | > 100 | > 100 | > 100 | > 100 | –
CSC(=NCCCN=C(NS(=O)(=O)c1ccc(Cl)cc1)SC)NS(=O)(=O)c1ccc(Cl)cc1 | > 100 | > 100 | 43.6 | – | > 100 | > 100 | > 100 | > 100 | > 100 | –
NS(=O)(=O)C1CCCCC1C(=O)NNC(=O)C(=O)Nc1nc(=S)[nH][nH]1 (configuration not stated) | > 100 | – | > 100 | > 100 | > 100 | > 100 | > 100 | > 100 | > 100 | –
CCc1nc2cc(F)ccc2[nH]c1=O | > 100 | > 100 | > 100 | – | > 100 | > 100 | > 100 | > 100 | > 100 | > 100
COc1cc(COC(=O)NC(Cc2cccs2)C(=O)O)c([N+](=O)[O-])cc1OC (configuration not stated) | > 100 | > 100 | – | – | > 100 | > 100 | > 100 | > 100 | > 100 | > 100
NS(=O)(=O)c1cc2c(cc1Cl)NC(C(=O)NNC(=O)c1ccncc1)=NS2(=O)=O | > 100 | > 100 | > 100 | > 100 | > 100 | – | > 100 | > 100 | – | –
O=C(c1ccccc1)n1c2ccc(Br)cc2c2nc3ccccc3nc21 | > 100 | > 100 | > 100 | > 100 | > 100 | > 100 | > 100 | > 100 | > 100 | –
CN(C)c1ccc(/C=C2\CCCCCC2=O)cc1 | > 100 | > 100 | > 100 | – | > 100 | – | > 100 | > 100 | > 100 | –
CCOC(=O)N/N=C(/N)Cc1ccc(Cl)cc1 | > 100 | > 100 | > 100 | > 100 | > 100 | > 100 | – | > 100 | > 100 | –
Cc1ccc(C)c(C(=O)CC2OC(O)C(Cl)C2Cl)c1 (configuration not stated) | 33.5 | – | > 100 | 29.4 | > 100 | > 100 | > 100 | > 100 | > 100 | –
O=[N+]([O-])c1cccc2c1[nH]c1c(-c3ccccc3)nccc12 | > 36.9 | – | 3 | 4.27 | – | > 30.3 | > 100 | > 100 | > 100 | –
Oc1[nH]c2ccccc2c1N=Nc1nc(-c2ccccc2)cs1 | > 100 | > 100 | > 100 | – | > 100 | > 100 | 46.6 | > 100 | – | –
COc1ccc(NC(=S)Nc2cccc(C)n2)cc1 | > 100 | > 100 | > 100 | – | > 100 | > 100 | > 100 | > 100 | > 100 | > 100
CC(=O)Oc1cc(OC(C)=O)c2c(c1C)CC[C@@H]1[C@@H]2CC[C@]2(C)[C@@H](OC(C)=O)CC[C@@H]12 | 32.9 | 34.8 | – | 32 | 34.9 | 31.9 | 34.1 | 33.3 | 89.2 | 53.2
C/C(=C\CNc1ncnc2c1ncn2CCC#N)CO | > 100 | > 100 | – | > 100 | > 100 | – | > 100 | > 100 | > 100 | > 100
O=C1Cc2c([nH]c3c(Br)cccc23)-c2ccccc2N1 | > 100 | > 100 | > 100 | – | > 100 | > 100 | > 100 | > 100 | 56.5 | > 100
Cc1cc(NS(=O)(=O)c2ccc(NC(NC(=O)OC(C)C)(C(F)(F)F)C(F)(F)F)cc2)nc(C)n1 | > 100 | > 100 | – | – | > 100 | > 100 | > 100 | > 100 | > 100 | > 100
